Patent US20250154169A1, “COMPOUNDS AND METHODS FOR MODULATING SPLICING” (REMIX THERAPEUTICS INC., priority 2021, published 2025)
pIC50: −log10 of the molar value. Like-named read-outs stand apart in the source and are kept apart here.

Key:
Assay type in all cases: cell-based, human
HTT mRNA [1] = assay: Splicing RT-qPCR gene panel, HTT canonical junction (CJ) mRNA; conditions: Homo sapiens, Tables 4A/4B, read-out: HTT (IC50, decrease in CJ mRNA, gene panel)
Method: (§1) Compounds described herein were used to modulate RNA transcript abundance in cells. The expression of a target mRNA was measured by detecting the formation of an exon-exon junction in the canonical transcript (CJ). A compound mediated exon-inclusion event was detected by observing an increase in formation of a new junction with an alternative exon (AJ). Real-time qPCR assays were used to detect these splicing switches and interrogate the potency of various compounds towards different target genes. A high-throughput real time quantitative PCR (RT-qPCR) assay was developed to measure these two isoforms of the mRNA (CJ and AJ) for exemplary genes, such as HTT, SMN2, and MYB, together with a control housekeeping gene, GAPDH or GUSB or PPIA, used for normalization. Briefly, the A673 or K562 cell line was treated with various compounds described herein (e.g., compounds of Formula (I)). After treatment, the levels of the HTT, MYB, or SMN2 mRNA targets were determined from each sample of cell lysate by cDNA synthesis followed by qPCR.
(§2) The A673 cell line was cultured in DMEM with 10% FBS. Cells were diluted with full growth media and plated in a 96-well plate (15,000 cells in 100 ul media per well). The plate was incubated at 37° C. with 5% CO2 for 24 hours to allow cells to adhere. An 11-point 3-fold serial dilution of the compounds was made in DMSO then diluted in media in an intermediate plate. Compounds were transferred from the intermediate plate to the cell plate with the top dose at a final concentration of 10 uM in the well. Final DMSO concentration was kept at or below 0.25%. The cell plate was returned to the incubator at 37° C. with 5% CO2 for an additional 24 hours.
(§3) The K562 cell line was cultured in IMDM with 10% FBS. For K562, cells were diluted with full growth media and plated in either a 96-well plate (50,000 cells in 50 uL media per well) or a 384-well plate (8,000-40,000 cells in 45 uL media per well). An 11-point 3-fold serial dilution of the compounds were made in DMSO then diluted in media in an intermediate plate. Compound was transferred from the intermediate plate to the cell plate with the top dose at a final concentration of 10 uM in the well. Final DMSO concentration was kept at or below 0.25%. Final volume was 100 uL for 96-well plate and 50 uL for 384-well plate. The cell plate was then placed in an incubator at 37° C. with 5% CO2 for 24 hours.
(§4) The cells were then gently washed with 50 uL-100 uL cold PBS before proceeding to addition of lysis buffer. 30 uL-50 uL of room temperature lysis buffer with DNAse I (and optionally RNAsin) was added to each well. Cells were shaken/mixed thoroughly at room temperature for 5-10 minutes for lysis to take place and then 3 uL-5 uL of room temperature stop solution was added and wells were shaken/mixed again. After 2-5 minutes, the cell lysate plate was transferred to ice for RT-qPCR reaction setup. The lysates could also be frozen at −80° C. for later use.
(§5) In some cases, a direct lysis buffer was used. An appropriate volume of 3× lysis buffer (10 mM Tris, 150 mM NaCl, 1.5%-2.5% Igepal and 0.1-1 U/uL RNAsin, pH 7.4) was directly added to either K562 or A673 cells in media and mixed by pipetting 3 times. The plates were then incubated at room temperature with shaking/rocking for 20-50 minutes to allow for lysis to take place. After this time, the cell lysate plate was transferred to ice to set up for the RT-qPCR reactions. The lysates could also be frozen at −80° C. for later use.
(§6) To set up 10 uL RT-qPCR reactions, cell lysates were transferred to 384-well qPCR plates containing the master mix according to the table below. The plates were sealed, gently vortexed, and spun down before the run. The volumes were adjusted accordingly in some instances where the reaction was carried in 20 μL. The table below summarizes the components of the RT-qPCR reactions:
(§7) The RT-qPCR reaction was performed using a QuantStudio (ThermoFisher) under the following fast cycling conditions. […]

SMN2 mRNA = assay: Splicing RT-qPCR gene panel, SMN2 canonical junction (CJ) mRNA; conditions: Homo sapiens, Tables 4A/4B, read-out: SMN2 (IC50, decrease in CJ mRNA, gene panel)
Method: as §1, §2, §3, §4, §5, §6, §7

MYB mRNA = assay: Splicing RT-qPCR assay, MYB canonical (CJ) and alternative (AJ) junction mRNA; conditions: Homo sapiens; for AC50: read-out: MYB AJ (AC50, increase in alternative junction mRNA)
Summary of the method: (§8)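 A673 or K562 cells were treated 24 h at 37 °C with an 11-point 3-fold compound dilution series (top 10 uM, DMSO ≤0.25%). Lysates went to one-step RT-qPCR measuring canonical (CJ) and alternative-exon (AJ) junction transcripts, normalized to GAPDH, GUSB or PPIA.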

Target C mRNA = assay: Splicing RT-qPCR gene panel, Target C canonical junction (CJ) mRNA; conditions: Homo sapiens, Tables 4A/4B, read-out: Target C (IC50, decrease in CJ mRNA, gene panel)
Method: as §1, §2, §3, §4, §5, §6, §7

HTT mRNA [2] = assay: Splicing RT-qPCR assay, HTT canonical (CJ) and alternative (AJ) junction mRNA; conditions: Homo sapiens, A673 or K562 cells, 24 hours compound treatment; for pIC50: read-out: HTT CJ (IC50, decrease in canonical junction mRNA); for AC50: read-out: HTT AJ (AC50, increase in alternative junction mRNA)
Summary of the method: as §8

[3] = Tables 4A/4B, canonical junction qPCR panel, read-out: MYB (IC50, decrease in CJ mRNA, gene panel)
[4] = 24 h, A673 or K562 cells, 24 hours compound treatment, RT-qPCR
[5] = 24 h, A673 or K562 cells, 24 hours compound treatment, RT-qPCR, read-out: MYB CJ (IC50, decrease in canonical junction mRNA)

Compound | pIC50 (HTT mRNA [1]) | pIC50 (SMN2 mRNA) | pIC50 (MYB mRNA; [3]) | pIC50 (Target C mRNA) | pIC50 (HTT mRNA [2]; 24 h) | AC50 (HTT mRNA [2]) | AC50 (MYB mRNA; [4]) | pIC50 (MYB mRNA; [5]) | pIC50 (HTT mRNA [2]) | AC50 (MYB mRNA; A673 or K562 cells, 24 hours compound treatment, RT-qPCR) | pIC50 (MYB mRNA; A673 or K562 cells, 24 hours compound treatment, RT-qPCR, read-out: MYB CJ (IC50, decrease in canonical junction mRNA))
Cc1cn2cc(NC(=O)c3ccc(N4CC[C@H](NC5(CF)CC5)C4)c4cn(C)nc34)cc(F)c2n1 (single isomer, unassigned) [Compound 449] | 5.00 to 6.00 | > 7.00 | > 7.00 | < 5.00 | – | – | – | – | – | – | –
Cc1cn2cc(NC(=O)c3ccc(N4CCC(NC(C)(C)C)C4)c4cc(C)oc34)cc(F)c2n1 (stereo not drawn) [Compound 203] | < 5.00 | > 7.00 | 6.00 to 7.00 | < 5.00 | – | – | – | – | – | – | –
Cc1cn2cc(NC(=O)c3ccc(N4CCN(C)CC4)c4cn(C)nc34)cc(F)c2n1 [Compound 207] | 6.00 to 7.00 | > 7.00 | > 7.00 | 5.00 to 6.00 | – | – | – | – | – | – | –
Cc1cn2cc(NC(=O)c3ccc(C4C[C@@H](C)N[C@@H](C)C4)c4cn(C)nc34)cc(F)c2n1 (stereo partly drawn) [Compound 211] | 5.00 to 6.00 | > 7.00 | 6.00 to 7.00 | 5.00 to 6.00 | – | – | – | – | – | – | –
Cc1cc2c(N3CCNCC3)ccc(C(=O)Nc3cc(F)c4nc(C)oc4c3)c2o1 [Compound 218] | 5.00 to 6.00 | > 7.00 | 6.00 to 7.00 | 5.00 to 6.00 | – | – | – | – | – | – | –
Cc1cn2cc(NC(=O)c3ccc(N4CCNC(C)C4)c4cn(C)nc34)cc(F)c2n1 (stereo not drawn) [Compound 228] | 6.00 to 7.00 | > 7.00 | > 7.00 | 6.00 to 7.00 | – | – | – | – | – | – | –
Cc1nc2c(F)cc(NC(=O)c3ccc(N4CCNCC4)c4cn(C)nc34)cc2o1 [Compound 234] | 5.00 to 6.00 | > 7.00 | > 7.00 | 5.00 to 6.00 | – | – | – | – | – | – | –
Cc1cn2cc(NC(=O)c3ccc(N4CCNC5(CC5)C4)c4cn(C)nc34)cc(F)c2n1 [Compound 241] | 6.00 to 7.00 | > 7.00 | 6.00 to 7.00 | 5.00 to 6.00 | – | – | – | – | – | – | –
CCn1cc2c(N3CCC(NC4CC4)CC3)cc(Cl)c(C(=O)Nc3cc(F)c4nc(C)cn4c3)c2n1 [Compound 627] | – | – | – | – | 5.00 to 6.00 | 1 to 10 µM | 100 to 1000 nM | 6.00 to 7.00 | – | – | –
Cc1cn2cc(NC(=O)c3ccc(N4CCC(N5C6COCC65)C4)c4cn(C)nc34)cc(F)c2n1 (stereo not drawn) [Compound 629] | – | – | – | – | – | 1 to 10 µM | – | – | 5.00 to 6.00 | 1000 to 10000 nM | 5.00 to 6.00
CNc1nc(NC(=O)c2ccc(N3CC[C@@H](NC)C3)c3cn(C)nc23)cn2cc(C)nc12 [Compound 631, 2-methyl-N-[2-methyl-8-(methylamino)imidazo[1,2-a]pyrazin-6-yl]-4-[(3R)-3-(methylamino)pyrrolidin-1-yl]indazole-7-carboxamide] | – | – | – | – | < 5.00 | > 10 µM | 1000 to 10000 nM | 5.00 to 6.00 | – | – | –
Cc1cn2cc(NC(=O)c3ccc(N4CC[C@@H](NC5C6COCC65)C4)c4cn(C)nc34)cc(F)c2n1 (stereo partly drawn) [Compound 633] | – | – | – | – | 5.00 to 6.00 | > 10 µM | 100 to 1000 nM | 6.00 to 7.00 | – | – | –
CCn1cc2c(N3CC[C@@H](NC)C3)cc(O)c(C(=O)Nc3cc(F)c4nc(C)cn4c3)c2n1 [Compound 635] | – | – | – | – | < 5.00 | > 10 µM | 1000 to 10000 nM | 6.00 to 7.00 | – | – | –
CCn1cc2c(N3CC[C@@H](N(C)C)C3)cc(O)c(C(=O)Nc3cc(F)c4nc(C)cn4c3)c2n1 [Compound 637] | – | – | – | – | 5.00 to 6.00 | 1 to 10 µM | 1000 to 10000 nM | 6.00 to 7.00 | – | – | –
Cc1cn2cc(NC(=O)c3ccc(N4CC[C@@H](NCC5(O)CC5)C4)c4cn(C)nc34)cc(F)c2n1 [Compound 639] | – | – | – | – | < 5.00 | > 10 µM | 100 to 1000 nM | 6.00 to 7.00 | – | – | –
CCC(=O)CN[C@@H]1CCN(c2ccc(C(=O)Nc3cc(F)c4nc(C)cn4c3)c3nn(C)cc23)C1 [Compound 641] | – | – | – | – | 5.00 to 6.00 | 1 to 10 µM | < 100 nM | > 7.00 | – | – | –
Cc1cn2cc(NC(=O)c3ccc(N4CC[C@@H](NC5(CO)CC5)C4)c4cn(C)nc34)cc(F)c2n1 [Compound 643] | – | – | – | – | < 5.00 | > 10 µM | 100 to 1000 nM | 6.00 to 7.00 | – | – | –
Cc1cn2cc(NC(=O)c3ccc(N4CC[C@@H](NC5CC5(C)C)C4)c4cn(C)nc34)cc(F)c2n1 (stereo partly drawn) [Compound 645] | – | – | – | – | 5.00 to 6.00 | > 10 µM | 100 to 1000 nM | 6.00 to 7.00 | – | – | –
Cc1cn2cc(NC(=O)c3ccc(N4CC[C@@H](NC5CC56CCOCC6)C4)c4cn(C)nc34)cc(F)c2n1 (stereo partly drawn) [Compound 649] | – | – | – | – | < 5.00 | > 10 µM | 100 to 1000 nM | 6.00 to 7.00 | – | – | –
CN[C@@H]1CCN(c2ccc(C(=O)Nc3nc(OC)c4nc(C)cn4c3F)c3nn(C)cc23)C1 [Compound 651] | – | – | – | – | < 5.00 | > 10 µM | > 10000 nM | < 5.00 | – | – | –
CCn1cc2c(N3CC[C@@H](NC)C3)cc(OC)c(C(=O)Nc3cc(F)c4nc(C)cn4c3)c2n1 [Compound 653] | – | – | – | – | < 5.00 | > 10 µM | > 10000 nM | < 5.00 | – | – | –
